Patent publication US20220089592A1, “IMIDAZO[1,2-A]PYRIDINYL DERIVATIVES AS IRAK4 INHIBITORS” (priority 2019, published 2022)

Molecular target: T1, IRAK4 (Homo sapiens, UniProt Q9NWZ3)
T1 sequence (Q9NWZ3 1-460): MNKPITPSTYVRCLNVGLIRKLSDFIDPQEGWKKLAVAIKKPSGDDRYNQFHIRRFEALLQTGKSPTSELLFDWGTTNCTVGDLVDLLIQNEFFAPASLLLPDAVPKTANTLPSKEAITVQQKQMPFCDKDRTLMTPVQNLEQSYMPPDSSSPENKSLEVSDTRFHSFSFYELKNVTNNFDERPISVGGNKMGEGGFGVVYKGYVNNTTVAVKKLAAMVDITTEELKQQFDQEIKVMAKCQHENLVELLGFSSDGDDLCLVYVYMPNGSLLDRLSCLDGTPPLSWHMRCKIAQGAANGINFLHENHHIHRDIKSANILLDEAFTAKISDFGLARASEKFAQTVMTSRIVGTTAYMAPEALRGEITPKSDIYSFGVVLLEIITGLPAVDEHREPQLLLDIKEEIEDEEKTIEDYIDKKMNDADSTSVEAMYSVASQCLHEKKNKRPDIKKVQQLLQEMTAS
Assay: 2-hour 1 mM ATP IRAK4 Biochemical assay (as above, but with 100 pM IRAK4 and 1 mM ATP)
Conditions: IRAK4 MSD BIOCHEMICAL (1 mM ATP) IC50 (μM), 100 pM IRAK4, 2 hours
Experimental: The 2-hour 10 μM ATP Biochemical Assay employs a MesoScale Detection (MSD) format.
The activity is quenched with 11 μl of 70 mM EDTA, pH 8.
To detect the phosphorylated biotinylated peptide substrate, 30 μl of the quenched reaction mixture is added to equivalent wells of a 384 well streptavidin coated MesoScale plate (Meso Scale Discovery #L21SA-1). After a 1 hour incubation of the plate for 1 hour at room temperature with gentle mixing, the plate wells are washed 3 times with 50 mM Tris, pH 7.5, 150 mM NaCl, 0.02% Tween-20.
A 25 μl volume of 1:500 anti-P-Threonine Rabbit polyclonal Antibody plus 1:500 Goat-anti-Rabbit Sulfo Tag Antibody (Meso Scale Discovery R32AB-1) in 50 mM Tris, pH 7.5, 150 mM NaCl, 0.02% Tween-20 plus 2% BSA is then added to each well. After a 1-hour incubation of the plate for 1 hour at room temperature with gentle mixing, the plate wells are washed, 3 times with 50 mM Tris, pH 7.5, 150 mM NaCl, 0.02% Tween-20. A 40 μl volume of 2×MSD Read Buffer (Meso Scale Discovery R92TC-1) is added to each well, and the plate is read immediately in an MSD Plate Reader (Meso Scale Discovery).
The 2-hour 1 mM ATP IRAK4 Biochemical assay was performed as described above, but with 100 pM IRAK4 and 1 mM ATP.

Structure (SMILES) | IC50
COc1nc(NC(=O)c2cccc(C(F)F)n2)cn2cc(C3CCCOC3)nc12 (single isomer, unassigned) [Example 297, 6-(difluoromethyl)-N-(8-methoxy-2-(tetrahydro-2H-pyran-3-yl)imidazo[1,2-a]pyrazin-6-yl)picolinamide] | 0.004 µM
CC(C)Oc1c(NC(=O)c2cccc3ccnn23)cn2cc(C34COC(C)(C3)C4)nc2c1F [Example 548, N-(8-fluoro-7-isopropoxy-2-(1-methyl-2-oxabicyclo[2.1.1]hexan-4-yl)imidazo[1,2-a]pyridin-6-yl)pyrazolo[1,5-a]pyridine-7-carboxamide 2,2,2-trifluoroacetate] | 0.001 µM
CC(C)Oc1cc2nc(C3CC3)cn2cc1NC(=O)c1ccn(C(F)F)n1 [Example 528, N-(2-cyclopropyl-7-isopropoxyimidazo[1,2-a]pyridin-6-yl)-1-(difluoromethyl)-1H-pyrazole-3-carboxamide] | 0.004 µM
COc1cc2nc(C34COC(C)(C3)C4)cn2cc1NC(=O)c1cccc(C(F)(F)F)n1 [Example 309, N-(7-methoxy-2-(1-methyl-2-oxabicyclo[2.1.1]hexan-4-yl)imidazo[1,2-a]pyridin-6-yl)-6-(trifluoromethyl)picolinamide] | 0.001 µM
CC(C)Oc1cc2nc(-c3ccnn3C)cn2cc1NC(=O)c1cccc(C(F)F)n1 [Example 525, 6-(difluoromethyl)-N-(7-isopropoxy-2-(1-methyl-1H-pyrazol-5-yl)imidazo[1,2-a]pyridin-6-yl)picolinamide] | 0.002 µM
CCOc1nc(NC(=O)c2cccc(C(F)F)n2)cn2cc(C34COC(C)(C3)C4)nc12 [Example 201, 6-(difluoromethyl)-N-(8-ethoxy-2-(1-methyl-2-oxabicyclo[2.1.1]hexan-4-yl)imidazo[1,2-a]pyrazin-6-yl)picolinamide] | 0.004 µM
CC12CC(c3cn4cc(NC(=O)c5cccc(C(F)F)n5)c(C(F)F)cc4n3)(CO1)C2 [Example 393, 6-(difluoromethyl)-N-(7-(difluoromethyl)-2-(1-methyl-2-oxabicyclo[2.1.1]hexan-4-yl)imidazo[1,2-a]pyridin-6-yl)picolinamide 2,2,2-trifluoroacetate] | 0.003 µM
CC12CC(c3cn4cc(NC(=O)c5cccc(C(F)F)n5)cc(OC(F)F)c4n3)(CO1)C2 [Example 419, N-(8-(difluoromethoxy)-2-(1-methyl-2-oxabicyclo[2.1.1]hexan-4-yl)imidazo[1,2-a]pyridin-6-yl)-6-(difluoromethyl)picolinamide] | 0.011 µM
CC(C)Oc1nc(NC(=O)c2cccc(C(F)F)n2)cn2cc(C3CCOCC3)nc12 [Example 339, 6-(difluoromethyl)-N-(8-isopropoxy-2-(tetrahydro-2H-pyran-4-yl)imidazo[1,2-a]pyrazin-6-yl)picolinamide] | 0.016 µM
Cc1cccc(C(=O)Nc2cn3cc(C45COC(C)(C4)C5)nc3nc2OC(C)C)c1F [Example 490, 2-fluoro-N-(7-isopropoxy-2-(1-methyl-2-oxabicyclo[2.1.1]hexan-4-yl)imidazo[1,2-a]pyrimidin-6-yl)-3-methylbenzamide] | 0.001 µM
CCOc1nc(NC(=O)c2cccc(C(F)F)n2)cn2cc(C3CCOCC3)nc12 [Example 475, 6-(difluoromethyl)-N-(8-ethoxy-2-(tetrahydro-2H-pyran-4-yl)imidazo[1,2-a]pyrazin-6-yl)picolinamide 2,2,2-trifluoroacetate] | 0.008 µM
O=C(Nc1cn2cc(C3CCOCC3)nc2cc1OCCOC(F)F)c1cccc(C(F)F)n1 [Example 192, N-(7-(2-(difluoromethoxy)ethoxy)-2-(tetrahydro-2H-pyran-4-yl)imidazo[1,2-a]pyridin-6-yl)-6-(difluoromethyl)picolinamide] | 0.002 µM
CC(C)Oc1c(NC(=O)c2ccnc3ccnn23)cn2cc(C34COC(C)(C3)C4)nc2c1F [Example 433, N-(8-fluoro-7-isopropoxy-2-(1-methyl-2-oxabicyclo[2.1.1]hexan-4-yl)imidazo[1,2-a]pyridin-6-yl)pyrazolo[1,5-a]pyrimidine-7-carboxamide] | 0.013 µM
O=C(Nc1cc(OCC(F)F)c2nc(C3CCOCC3)cn2c1)c1cccc(C(F)F)n1 [Example 289, N-(8-(2,2-difluoroethoxy)-2-(tetrahydro-2H-pyran-4-yl)imidazo[1,2-a]pyridin-6-yl)-6-(difluoromethyl)picolinamide] | 0.006 µM
O=C(Nc1cc(OC(F)F)c2nc(C3CCOCC3)cn2c1)c1cccc(C(F)F)n1 [Example 307, N-(8-(difluoromethoxy)-2-(tetrahydro-2H-pyran-4-yl)imidazo[1,2-a]pyridin-6-yl)-6-(difluoromethyl)picolinamide] | 0.015 µM
Cc1cccc(C(=O)Nc2cn3cc(C45COC(C)(C4)C5)nc3cc2C(F)F)n1 [Example 392, N-(7-(difluoromethyl)-2-(1-methyl-2-oxabicyclo[2.1.1]hexan-4-yl)imidazo[1,2-a]pyridin-6-yl)-6-methylpicolinamide 2,2,2-trifluoroacetate] | 0.008 µM
COc1ccccc1C(=O)Nc1cn2cc(C3CCOCC3)nc2c(OC)n1 [Example 457, 2-methoxy-N-(8-methoxy-2-(tetrahydro-2H-pyran-4-yl)imidazo[1,2-a]pyrazin-6-yl)benzamide 2,2,2-trifluoroacetate] | 0.096 µM
CC(C)Oc1nc2nc(C34COC(C)(C3)C4)cn2cc1NC(=O)c1cnn2cccc(F)c12 [Example 349, 4-fluoro-N-(7-isopropoxy-2-(1-methyl-2-oxabicyclo[2.1.1]hexan-4-yl)imidazo[1,2-a]pyrimidin-6-yl)pyrazolo[1,5-a]pyridine-3-carboxamide] | 0.001 µM
COc1cccn2ncc(C(=O)Nc3cn4cc(C56COC(C)(C5)C6)nc4c(OC(C)C)n3)c12 [Example 338, N-(8-isopropoxy-2-(1-methyl-2-oxabicyclo[2.1.1]hexan-4-yl)imidazo[1,2-a]pyrazin-6-yl)-4-methoxypyrazolo[1,5-a]pyridine-3-carboxamide] | 0.002 µM
COc1nc(NC(=O)c2cccc(C(F)F)n2)cn2cc(C34COCC3C4)nc12 (stereo not drawn) [Example 550, N-(2-(3-oxabicyclo[3.1.0]hexan-1-yl)-8-methoxyimidazo[1,2-a]pyrazin-6-yl)-6-(difluoromethyl)picolinamide 2,2,2-trifluoroacetate] | 0.055 µM
Cc1nc(C(=O)Nc2cn3cc(C45COC(C)(C4)C5)nc3c(OC3CCC3)n2)co1 [Example 484, N-(8-cyclobutoxy-2-(1-methyl-2-oxabicyclo[2.1.1]hexan-4-yl)imidazo[1,2-a]pyrazin-6-yl)-2-methyloxazole-4-carboxamide] | 0.02 µM
CCOc1cc(NC(=O)c2cccc(C(F)(F)F)n2)cn2cc(C3CCCOC3)nc12 (single isomer, unassigned) [Example 287, N-(8-ethoxy-2-(tetrahydro-2H-pyran-3-yl)imidazo[1,2-a]pyridin-6-yl)-6-(trifluoromethyl)picolinamide] | 0.006 µM
COc1nc(NC(=O)c2ccn(C(C)C)n2)cn2cc(C3CCOCC3)nc12 [Example 462, 1-isopropyl-N-(8-methoxy-2-(tetrahydro-2H-pyran-4-yl)imidazo[1,2-a]pyrazin-6-yl)-1H-pyrazole-3-carboxamide 2,2,2-trifluoroacetate] | 0.095 µM
COc1cc(F)ccc1C(=O)Nc1cn2cc(C34COC(C)(C3)C4)nc2c(OC(C)C)n1 [Example 479, 4-fluoro-N-(8-isopropoxy-2-(1-methyl-2-oxabicyclo[2.1.1]hexan-4-yl)imidazo[1,2-a]pyrazin-6-yl)-2-methoxybenzamide 2,2,2-trifluoroacetate] | 0.015 µM
COc1nc(NC(=O)c2cccc(C(C)C)n2)cn2cc(C3CCOCC3)nc12 [Example 456, 6-isopropyl-N-(8-methoxy-2-(tetrahydro-2H-pyran-4-yl)imidazo[1,2-a]pyrazin-6-yl)picolinamide] | 0.014 µM
COc1cc(NC(=O)c2csc(C3CC3)n2)cn2cc(C3CCOCC3)nc12 [Example 244, 2-cyclopropyl-N-(8-methoxy-2-(tetrahydro-2H-pyran-4-yl)imidazo[1,2-a]pyridin-6-yl)thiazole-4-carboxamide] | 0.028 µM
CCOc1cc2nc(C3C4COCC43)cn2cc1NC(=O)c1ccn(C2CC2(F)F)n1 (stereo not drawn) [Example 374, N-(2-(3-oxabicyclo[3.1.0]hexan-6-yl)-7-ethoxyimidazo[1,2-a]pyridin-6-yl)-1-(2,2-difluorocyclopropyl)-1H-pyrazole-3-carboxamide] | 0.002 µM
